How the values were obtained:
CHO-K1 cell strain = experiment: Changes in intracellular Ca2+ concentration in CHO-K1 host cell not transfected (negative control); assay type: cell-based, Chinese hamster
Method: The specific method for measuring changes in the intracellular Ca^2+ concentration in the HA-ph01207#10-6 cell strain induced by CCK-8S (SEQ ID NO: 14) and the results are described below. The HA-ph01207#10-6 cell strain was seeded on a 96-well plate (a plate with a black wall and a transparent bottom) at a cell count of 2×10^4/100 μL medium/well and cultured at 37° C. in the presence of 5% CO2. As a medium, DMEM/F12 (Gibco) containing 10% fetal calf serum (Moregate) was used. On the following day, 50 μL of the medium was removed from each well, 50 μL of a loading buffer was added to each well, and the mixture was reacted at room temperature for 1.5 h, so that a fluorescent dye contained in the loading buffer should be taken up into the cell. The loading buffer was prepared by dissolving component A of the FLIPR Calcium 3 Assay Kit (Molecular Device) in a solution obtained by adding 0.1 mL of 500 mM probenecid (Sigma) to 9.9 mL of component B. After reaction, changes over time in the fluorescence intensity in each well after addition of CCK-8S (Peptide Institute, Inc.) were measured using the FLEX station (Molecular Device). Furthermore, similar measurement was performed for CCK-8NS (Peptide Institute, Inc.) and CCK-4 (Peptide Institute, Inc.). 0.52 mg of CCK-8S (SEQ ID NO: 14) was dissolved in 4.5 mL of 1% NaHCO3 (Wako) to prepare a solution having 0.1 mM concentration. 0.53 mg of CCK-8NS was dissolved in 0.50 mL of dimethyl sulfoxide (DMSO, Sigma), and then 4.50 mL of redistilled water H2O was added to prepare a solution having 0.1 mM concentration. 0.54 mg of CCK-4 was dissolved in 0.46 mL of DMSO, 4.09 mL of redistilled water was added to prepare a solution having 0.2 mM concentration. CCK-8S (SEQ ID NO: 14), CCK-8NS, and CCK-4 were diluted in phosphate-buffered physiological saline (PBS) to prepare 5 nM solutions, and 25 μL each was added (final concentration 1 nM) to perform measurement. As a positive control for including an increase in the intracellular Ca^2+ concentration, A23187 (Calbiochem) was used at a final concentration of 10 μM. As a negative control, the CHO-K1 cell strain used to prepare the HA-ph01207#10-6 cell strain as a host was used. Since the CHO-K1 cell strain was not transfected with the ph01207-expressing vector, the ph01207 gene product was not expressed.
Changes in the intracellular calcium (Ca^2+) concentration induced by CCK-8S were measured by a method similar to the method described in Example 5 using the 7tmHR stably-expressing strain and the hk01941 stably-expressing strain prepared in Example 7. As a control, a host cell not transfected with the 7tmHR-expressing vector or the hk01941-expressing vector was also used.
Cells were seeded in a 96-well plate (a plate with a black wall and a transparent bottom) at a cell count of 3×10^4/100 μL of medium/well and cultured overnight at 37° C. in a 5% CO2 incubator. On the following day, 50 μL of the medium was removed from each well, […] of a loading buffer was added to each well, and the mixture was reacted at room temperature for 1 h, so that a fluorescent dye contained in the loading buffer was taken up into the cell. The loading buffer was prepared by a method similar to the method described in Example 5. After reaction, changes over time in the fluorescence intensity in each well after addition of CCK-8S were measured using the FLEX station (Molecular Device). CCK-8S was used at a final concentration of 10 pM to 1 μM. Furthermore, as a positive control of the assay, A23187 was used at a final concentration of 20 μM.
Cells were seeded in a 96-well plate (a plate with a black wall and a transparent bottom) at a cell count of 3×10^4/100 μL of medium/well and cultured overnight at 37° C. in a 5% CO2 incubator. […]

7tmHR = molecular target: T1, 7tmHR (Homo sapiens, UniProt O60241); experiment: Changes in intracellular Ca2+ concentration in 7tmHR stably-expressing strain; assay type: cell-based
T1 construct: a vector expressing each full-length cDNA clone was constructed; expressed in transfected cells; host or cells: CHO-K1, 7tmHR/pcDNA3.1
Method: The 7tmHR stably-expressing strain and the hk01941 stably-expressing strain were prepared by transfecting the 7tmHR-expressing vector (7tmHR/pcDNA3.1) and the hk01941-expressing vector (hk01941/pcDNA3.1), respectively, into a CHO-K1 cell strain. Specifically, the expression vector was mixed with Lipofectamine 2000, (may be referred to as LF2000, Invitrogen) (4 μg DNA/250 μL of DMEM/F12 medium+10 μL of LF2000/250 μL DMEM/F12 medium) and added the CHO-K1 strain (2 mL medium/well) cultured in a 6-well plate to be transfected thereinto. On the following day, cells were recovered and seeded in a 96-well plate at cell density of 1 cell/well, cultured in a selective medium containing G418 (400 μg/mL) (DMEM/F 12 medium containing 10% FCS), and screened for expression cell strains. […]
Changes in the intracellular calcium (Ca^2+) concentration induced by CCK-8S were measured by a method similar to the method described in Example 5 using the 7tmHR stably-expressing strain and the hk01941 stably-expressing strain prepared in Example 7. […]
Cells were seeded in a 96-well plate (a plate with a black wall and a transparent bottom) at a cell count of 3×10^4/100 μL of medium/well and cultured overnight at 37° C. in a 5% CO2 incubator. […] After reaction, changes over time in the fluorescence intensity in each well after addition of CCK-8S were measured using the FLEX station (Molecular Device). […]

T1 sequence (O60241 13-1585): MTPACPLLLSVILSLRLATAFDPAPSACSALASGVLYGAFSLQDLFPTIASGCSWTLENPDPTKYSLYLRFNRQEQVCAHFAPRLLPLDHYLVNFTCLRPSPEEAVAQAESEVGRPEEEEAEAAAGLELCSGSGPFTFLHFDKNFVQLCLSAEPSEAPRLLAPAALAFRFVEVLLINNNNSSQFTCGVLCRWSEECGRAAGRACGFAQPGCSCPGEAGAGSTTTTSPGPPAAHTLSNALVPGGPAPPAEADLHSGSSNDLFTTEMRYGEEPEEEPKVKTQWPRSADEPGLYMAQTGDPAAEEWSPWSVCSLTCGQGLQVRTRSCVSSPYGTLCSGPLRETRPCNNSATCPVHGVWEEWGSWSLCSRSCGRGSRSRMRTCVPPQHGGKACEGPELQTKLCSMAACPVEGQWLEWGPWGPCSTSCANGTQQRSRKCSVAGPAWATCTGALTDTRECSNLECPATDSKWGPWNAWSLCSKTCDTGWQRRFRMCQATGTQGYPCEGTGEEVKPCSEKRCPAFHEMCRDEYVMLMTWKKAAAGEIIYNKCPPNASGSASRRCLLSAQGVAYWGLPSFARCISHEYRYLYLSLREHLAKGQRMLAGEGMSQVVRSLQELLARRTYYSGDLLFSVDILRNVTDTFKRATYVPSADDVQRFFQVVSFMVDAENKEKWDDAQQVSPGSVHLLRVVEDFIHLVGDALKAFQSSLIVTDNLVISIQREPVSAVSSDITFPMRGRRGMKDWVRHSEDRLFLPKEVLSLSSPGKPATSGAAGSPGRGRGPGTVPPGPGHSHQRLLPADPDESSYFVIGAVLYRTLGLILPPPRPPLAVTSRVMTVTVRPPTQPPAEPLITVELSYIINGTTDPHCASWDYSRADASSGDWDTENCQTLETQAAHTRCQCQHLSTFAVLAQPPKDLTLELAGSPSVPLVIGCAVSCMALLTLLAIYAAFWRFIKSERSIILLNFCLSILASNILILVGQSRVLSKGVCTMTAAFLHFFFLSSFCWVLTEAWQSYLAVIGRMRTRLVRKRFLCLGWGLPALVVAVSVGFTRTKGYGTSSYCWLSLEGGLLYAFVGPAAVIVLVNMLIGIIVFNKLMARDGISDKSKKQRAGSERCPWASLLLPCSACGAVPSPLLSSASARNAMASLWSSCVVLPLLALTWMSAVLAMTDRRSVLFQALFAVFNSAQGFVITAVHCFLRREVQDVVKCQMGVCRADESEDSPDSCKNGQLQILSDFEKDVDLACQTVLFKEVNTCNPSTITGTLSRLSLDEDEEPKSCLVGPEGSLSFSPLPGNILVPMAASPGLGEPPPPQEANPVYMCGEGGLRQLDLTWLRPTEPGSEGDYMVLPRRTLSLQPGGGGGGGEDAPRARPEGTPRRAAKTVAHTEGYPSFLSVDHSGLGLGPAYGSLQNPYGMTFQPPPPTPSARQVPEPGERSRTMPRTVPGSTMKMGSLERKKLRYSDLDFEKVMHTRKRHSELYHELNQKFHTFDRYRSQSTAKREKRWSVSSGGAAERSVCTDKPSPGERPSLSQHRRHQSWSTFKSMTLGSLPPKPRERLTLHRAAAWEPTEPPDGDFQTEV

Row | Change in intracellular Ca2+ concentration after addition of CCK-8S (7tmHR; 7tmHR stably-expressing strain, CCK-8S 10 pM to 1 μM, figure at 1 nM) | Molecule | Change in intracellular Ca2+ concentration (fluorescence intensity) (CHO-K1 cell strain; CHO-K1 not transfected, peptide 1 nM (Example 5)) | Change in intracellular calcium concentration after addition of CCK-8S (CHO-K1 cell strain; host cell not transfected with the expressing vector (Examples 8, 9)) | Change in intracellular Ca2+ concentration (fluorescence intensity) (CHO-K1 cell strain; CHO-K1 not transfected, A23187 10 μM (Example 5)) | Change in intracellular Ca2+ concentration (fluorescence intensity) (CHO-K1 cell strain; host cell CHO-K1 not transfected, A23187 20 μM (Examples 8, 9)) | Change in intracellular Ca2+ concentration (fluorescence intensity) (7tmHR; 7tmHR/CHO#6, A23187 20 μM, positive control)
1 | increase | cholecystokinin octapeptide sulfated form [CCK-8S] | not increased | no change |  |  | 
2 |  | CNc1ccc2oc(C[C@H]3O[C@@]4(CC[C@H]3C)O[C@H]([C@H](C)C(=O)c3ccc[nH]3)[C@H](C)C[C@H]4C)nc2c1C(=O)O [A23187] |  |  | increased | increased | increased
